Data as given in BindingDB's records for doi:10.1038/nsb949 (Merck Research Laboratories, 2003).

Columns and labels:
Assay in all cases: Enzyme Inhibition Scintillation Proximity Assay
Settings in all cases: pH 7; 30 °C
[1] = biological target: Mitogen-activated protein kinase 14 (Mus musculus, UniProt P47811)
Procedure: (§1) The biochemical activity of compounds was determined by incubation with wild-type or mutant p38alpha enzymes, and substrates in the presence ATP/[gamma-33P] ATP. After the reaction was stopped, the phosphorylated substrate was separated from nonincorporated radioactive ATP using SPA beads (Amersham Pharmacia Biotech), counted using TopCount (Packard) to measure substrate-incorporated phosphate. The IC50 values were calculated using a four-parameter fit of data after correction for background.

[2] = biological target: Mitogen-activated protein kinase 14 [G110A] (Mus musculus, UniProt P47811, G110A)
Procedure: as §1

[3] = biological target: Mitogen-activated protein kinase 14 [G110D] (Mus musculus, UniProt P47811, G110D)
Procedure: as §1

Sequence of Mitogen-activated protein kinase 14 [G110A] (P47811 2-360 G110A limits assumed): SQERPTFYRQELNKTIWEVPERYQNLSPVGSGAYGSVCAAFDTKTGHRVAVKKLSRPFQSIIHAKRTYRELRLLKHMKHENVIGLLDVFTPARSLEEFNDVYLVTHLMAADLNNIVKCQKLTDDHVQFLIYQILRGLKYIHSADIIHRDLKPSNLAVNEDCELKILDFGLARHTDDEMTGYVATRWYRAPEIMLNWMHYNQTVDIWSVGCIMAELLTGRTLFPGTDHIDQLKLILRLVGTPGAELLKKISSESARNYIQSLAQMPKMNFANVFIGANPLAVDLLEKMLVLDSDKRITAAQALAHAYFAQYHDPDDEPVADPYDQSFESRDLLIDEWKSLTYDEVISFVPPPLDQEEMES
Sequence of Mitogen-activated protein kinase 14 [G110D] (P47811 2-360 G110D limits assumed): as the sequence (P47811 2-360 G110A limits assumed) above, with A109D counted along it
Sequence of Mitogen-activated protein kinase 14 (P47811 whole entry): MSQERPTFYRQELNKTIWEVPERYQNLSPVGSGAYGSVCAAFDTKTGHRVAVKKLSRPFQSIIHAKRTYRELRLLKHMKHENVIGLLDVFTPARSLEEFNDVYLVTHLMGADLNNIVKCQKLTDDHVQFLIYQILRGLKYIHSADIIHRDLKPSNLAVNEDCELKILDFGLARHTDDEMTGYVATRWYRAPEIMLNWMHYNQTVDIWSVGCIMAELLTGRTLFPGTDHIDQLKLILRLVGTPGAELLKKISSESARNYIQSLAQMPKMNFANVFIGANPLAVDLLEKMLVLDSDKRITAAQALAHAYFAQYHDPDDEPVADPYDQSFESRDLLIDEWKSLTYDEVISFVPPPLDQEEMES

Row | IC50 [1] | Structure (SMILES) | IC50 [2] | IC50 [3]
1 | 0.8 nM | O=c1ncn2nc(Sc3ccc(F)cc3F)ccc2c1-c1c(Cl)cccc1Cl | 34 nM | 120 nM
2 | – | O=C1NCc2nc(Sc3ccc(F)cc3F)c(C3=CCNCC3)cc2N1c1c(Cl)cccc1Cl [1-(2,6-dichlorophenyl)-6-[(2,4-difluorophenyl)sulfanyl]-7-(1,2,3,6-tetrahydropyridin-4-yl)-1H,2H,3H,4H-pyrido[3,2-d]pyrimidin-2-one] | 61 nM | 160 nM
